SMILES strings stand for the structures.

The subject of one assay is HCT-116 human colon carcinoma cells. The assay can be described thus: Cytotoxicity (in vitro) MTS assay in HCT-116 human colon carcinoma cells. The format is cell-based. Conditions: Homo sapiens, HCT-116, 72 h, read-out: IC50 HCT 116, HCT-116 cells, MTS assay, 72 hours at 37° C.; drug concentration required to inhibit cell proliferation to 50% of untreated control. Here is the method: Cytoxicity was assessed in HCT-116 human colon carcinoma cells by MTS (3-(4,5-dimethylthiazol-2-yl)-5-(3-carboxymethoxyphenyl)-2-(4-sulphenyl)-2H-tetrazolium, inner salt) assay as reported in T. L. Riss, et al., "Comparison of MTT, XTT, and a novel tetrazolium compound MTS for in vitro proliferation and chemosensitivity assays.", Mol. Biol. Cell 3 (Suppl.):184a, 1992. Cells were plated at 4,000 cell/well in 96 well microtiter plates and 24 hours later drugs were added and serial diluted. The cells were incubated at 37° C. for 72 hours at which time the tetrazolium dye, MTS at 333 μg/ml (final concentration), in combination with the electron coupling agent phenazine methosulfate at 25 μM (final concentration) was added. A dehydrogenase enzyme in live cell reduces the MTS to a form that absorbs light at […] which can be quantitated spectrophotometrically. The greater the absorbance the greater the number of live cells. The results are expressed as an IC50, which is the drug concentration required to inhibit cell proliferation (i.e. absorbance at 450 nm) to 50% of that of untreated control cells.
(In general: Formazan colour is commonly taken as a measure of viable cells.)
Consider `CC(=O)O[C@H]1C(=O)[C@]2(C)[C@@H](SC[S+](C)[O-])C[C@H]3OC[C@@]3(OC(C)=O)[C@H]2[C@H](OC(=O)c2ccccc2)[C@]2(O)C[C@H](OC(=O)[C@H](O)[C@@H](NC(=O)c3ccccc3)c3ccccc3)C(C)=C1C2(C)C` (stereo partly drawn) [31a&b, 7-deoxy-7β-methylsulfinylmethylthiopaclitaxel], for which the IC50 (in general, the concentration needed to halve the response being measured) turned out to be 6.48 nM.
Still for that read-out and setting: the same measure for `CS[C@@H]1C[C@H]2OC[C@@]2(OC(C)=O)[C@H]2[C@H](OC(=O)c3ccccc3)[C@]3(O)C[C@H](OC(=O)[C@H](O)[C@@H](NC(=O)c4ccccc4)c4ccccc4)C(C)=C([C@@H](OC(C)=O)C(=O)[C@@]21C)C3(C)C` [Compound 5a, 7-deoxy-7α-thiomethylpaclitaxel]: 13.1 nM; for `CC(=O)O[C@H]1C(=O)[C@@]2(C)[C@H]([C@H](OC(=O)c3ccccc3)[C@]3(O)C[C@H](OC(=O)[C@H](O)[C@@H](NC(=O)c4ccccc4)c4ccccc4)C(C)=C1C3(C)C)[C@]1(OC(C)=O)CO[C@@H]1C[C@@H]2S` [Compound 14a, 7-deoxy-7β-thiopaclitaxel]: 13.5 nM.
On the same count and under the same terms, the same measure for `COCS[C@H]1C[C@H]2OC[C@@]2(OC(C)=O)[C@H]2[C@H](OC(=O)c3ccccc3)[C@]3(O)C[C@H](OC(=O)[C@H](O)[C@@H](NC(=O)c4ccccc4)c4ccccc4)C(C)=C([C@@H](OC(C)=O)C(=O)[C@]12C)C3(C)C` [Compound 16a, 7-deoxy-7β-thiomethoxymethyl paclitaxel]: 0.5 nM; for `CS[C@H]1C[C@H]2OC[C@@]2(OC(C)=O)[C@H]2[C@H](OC(=O)c3ccccc3)[C@]3(O)C[C@H](OC(=O)[C@H](O)[C@@H](NC(=O)c4ccccc4)c4ccccc4)C(C)=C([C@@H](OC(C)=O)C(=O)[C@]12C)C3(C)C` [Compound 18a, 7-deoxy-7β-thiomethylpaclitaxel]: 0.2 nM.
Same read-out and setting: the same measure for `CC(=O)O[C@H]1C(=O)[C@]2(C)[C@@H](SCCO)C[C@H]3OC[C@@]3(OC(C)=O)[C@H]2[C@H](OC(=O)c2ccccc2)[C@]2(O)C[C@H](OC(=O)[C@H](O)[C@@H](NC(=O)c3ccccc3)c3ccccc3)C(C)=C1C2(C)C` [Compound 20a, 7-deoxy-7β-(2-hydroxethylthio)paclitaxel]: 0.82 nM; for `CS[C@H]1C[C@H]2OC[C@@]2(OC(C)=O)[C@H]2[C@H](OC(=O)c3ccccc3)[C@]3(O)C[C@H](OC(=O)[C@H](O)[C@@H](NC(=O)OC(C)(C)C)c4ccccc4)C(C)=C([C@@H](OC(C)=O)C(=O)[C@]12C)C3(C)C` [Compound 22a, 3'-NH-Boc-7-deoxy-7β-thiomethylpaclitaxel]: 0.3 nM.
Take `CCS[C@H]1C[C@H]2OC[C@@]2(OC(C)=O)[C@H]2[C@H](OC(=O)c3ccccc3)[C@]3(O)C[C@H](OC(=O)[C@H](O)[C@@H](NC(=O)c4ccccc4)c4ccccc4)C(C)=C([C@@H](OC(C)=O)C(=O)[C@]12C)C3(C)C` [Compound 24a, 7-deoxy-7β-thioethylpaclitaxel]: the IC50 was found to be 4.02 nM.
Regarding `CC(=O)O[C@H]1C(=O)[C@]2(C)[C@@H](SCC#N)C[C@H]3OC[C@@]3(OC(C)=O)[C@H]2[C@H](OC(=O)c2ccccc2)[C@]2(O)C[C@H](OC(=O)[C@H](O)[C@@H](NC(=O)c3ccccc3)c3ccccc3)C(C)=C1C2(C)C` [Compound 25a], the IC50 is less than 0.04 nM.
Still for that read-out and setting: the same measure for `C=CS[C@H]1C[C@H]2OC[C@@]2(OC(C)=O)[C@H]2[C@H](OC(=O)c3ccccc3)[C@]3(O)C[C@H](OC(=O)[C@H](O)[C@@H](NC(=O)c4ccccc4)c4ccccc4)C(C)=C([C@@H](OC(C)=O)C(=O)[C@]12C)C3(C)C` [Compound 27a, 7-deoxy-7β-thiovinylpaclitaxel]: 1.2 nM.
On the same count and under the same terms, with `CC(=O)O[C@H]1C(=O)[C@]2(C)[C@@H](SC#N)C[C@H]3OC[C@@]3(OC(C)=O)[C@H]2[C@H](OC(=O)c2ccccc2)[C@]2(O)C[C@H](OC(=O)[C@H](O)[C@@H](NC(=O)c3ccccc3)c3ccccc3)C(C)=C1C2(C)C` [Compound 28a, 7-deoxy-7β-thiocyanatopaclitaxel] the figure was 1.8 nM; with `CC(=O)O[C@H]1C(=O)[C@]2(C)[C@@H](SCc3ccccn3)C[C@H]3OC[C@@]3(OC(C)=O)[C@H]2[C@H](OC(=O)c2ccccc2)[C@]2(O)C[C@H](OC(=O)[C@H](O)[C@@H](NC(=O)c3ccccc3)c3ccccc3)C(C)=C1C2(C)C` [Compound 30a, 7-deoxy-7β-(thio-2-picolyl)-paclitaxel], 1.12 nM.
The same measure, in the same setting: with `COC(=O)/C=C/S[C@H]1C[C@H]2OC[C@@]2(OC(C)=O)[C@H]2[C@H](OC(=O)c3ccccc3)[C@]3(O)C[C@H](OC(=O)[C@H](O)[C@@H](NC(=O)c4ccccc4)c4ccccc4)C(C)=C([C@@H](OC(C)=O)C(=O)[C@]12C)C3(C)C` [Compound 34a, 7-deoxy-7β-thio-(3-methylacrylate)paclitaxel] the figure was 6.97 nM; with `COC(=O)/C=C\S[C@H]1C[C@H]2OC[C@@]2(OC(C)=O)[C@H]2[C@H](OC(=O)c3ccccc3)[C@]3(O)C[C@H](OC(=O)[C@H](O)[C@@H](NC(=O)c4ccccc4)c4ccccc4)C(C)=C([C@@H](OC(C)=O)C(=O)[C@]12C)C3(C)C` [Compound 35a, 7-deoxy-7β-thio-(3-methylacrylate)paclitaxel], 1.76 nM.
For `CC(=O)O[C@H]1C(=O)[C@@]2(C)[C@H]([C@H](OC(=O)c3ccccc3)[C@]3(O)C[C@H](OC(=O)[C@H](O)[C@@H](NC(=O)c4ccccc4)c4ccccc4)C(C)=C1C3(C)C)[C@]1(OC(C)=O)CO[C@@H]1C[C@@H]2O` [paclitaxel], the IC50 was in the range of 1.71 to 2.28 nM.

Still in this assay, the particulars now being: Homo sapiens; HCT-116 cells, MTS assay, 72 hours at 37° C.; drug concentration required to inhibit cell proliferation to 50% of untreated control; read-out: IC50 HCT 116.
Take `CC(=O)O[C@H]1C(=O)[C@@]2(C)[C@H]([C@H](OC(=O)c3ccccc3)[C@]3(O)C[C@H](OC(=O)[C@H](O)[C@@H](NC(=O)c4ccccc4)c4ccccc4)C(C)=C1C3(C)C)[C@]1(OC(C)=O)CO[C@@H]1C[C@H]2S(C)(=O)=O` [Compound 7a, 7-deoxy-7α-methylsulfonylpaclitaxel]: the IC50 came to 72.3 nM.
The same measure, in the same setting: the same measure for `CC(=O)O[C@@H]1C2=C(C)[C@@H](OC(=O)[C@H](O)[C@@H](NC(=O)c3ccccc3)c3ccccc3)C[C@@](O)([C@@H](OC(=O)c3ccccc3)[C@@H]3[C@]4(OC(C)=O)CO[C@@H]4C[C@@H]4[C@@]3(C)C1(O)CS4(=O)=O)C2(C)C` (stereo partly drawn) [Compound 9a]: 2.99 nM.

Still in this assay, the particulars now being: read-out: IC50 HCT 116; HCT-116 cells, MTS assay, 72 hours at 37° C.; drug concentration required to inhibit cell proliferation to 50% of untreated control.
For `CC(=O)O[C@H]1C(=O)[C@]2(C)[C@@H]([S+](C)[O-])C[C@H]3OC[C@@]3(OC(C)=O)[C@H]2[C@H](OC(=O)c2ccccc2)[C@]2(O)C[C@H](OC(=O)[C@H](O)[C@@H](NC(=O)c3ccccc3)c3ccccc3)C(C)=C1C2(C)C` (single isomer, unassigned) [Compound 29a, 7-deoxy-7β-methylsulfinyl-paclitaxel], the IC50 amounted to 3.99 nM.
Consider `CC(=O)O[C@H]1C(=O)[C@]2(C)[C@@H]([S+](C)[O-])C[C@H]3OC[C@@]3(OC(C)=O)[C@H]2[C@H](OC(=O)c2ccccc2)[C@]2(O)C[C@H](OC(=O)[C@H](O)[C@@H](NC(=O)c3ccccc3)c3ccccc3)C(C)=C1C2(C)C` (single isomer, unassigned) [Compound 29b, 7-deoxy-7β-methylsulfinyl-paclitaxel], for which the IC50 came out at 12.1 nM.

System in the next assay: not given
Assay: not given
The settings on record: background statement; cited from earlier work.
For the compound `CC(=O)O[C@H]1C(=O)[C@@]2(C)[C@H]([C@H](OC(=O)c3ccccc3)[C@]3(O)C[C@H](OC(=O)[C@H](O)[C@@H](NC(=O)c4ccccc4)c4ccccc4)C(C)=C1C3(C)C)[C@]1(OC(C)=O)CO[C@@H]1C[C@@H]2O` [paclitaxel], the “antitumor activity in in vivo animal models” value is on record as “excellent antitumor activity”.

System in a further assay: not given
Assay: not given
Conditions: background statement; cited from earlier work. The source holds these as a separate data set.
`CC(=O)O[C@@]12CO[C@@H]1C[C@H](O)[C@@]1(C)C(=O)[C@H](O)C3=C(C)[C@@H](OC(=O)[C@H](O)[C@@H](NC(=O)OC(C)(C)C)c4ccccc4)C[C@@](O)([C@@H](OC(=O)c4ccccc4)[C@H]21)C3(C)C` [docetaxel]: the antitumor activity entry is listed as “good antitumor activity”.

Source of the values: US6017935A, “7-sulfur substituted paclitaxels” (Bristol-Myers Squibb Company, priority 1998, dated 2000).
